One assay deals with human arginase I (ARG I) (Homo sapiens (Human), UniProt P05089). Briefly: Inhibition of arginase I, spectrophotometric urea assay at 530 nm. Format: biochemical. As to conditions: potency rank 1-5; pH 7.4, 37° C., 60 minutes. As for the experimental part: (§1) Inhibition of arginase I (ARG I) and arginase II (ARG II) by Formula I or Formula II compounds is followed spectrophotometrically at 530 nm. The compound to be tested was dissolved in DMSO at an initial concentration 50-fold greater than its final concentration in the cuvette. 10 μl of the stock solution was diluted in 90 μl of the assay buffer that comprises 0.1M sodium phosphate buffer containing 130 mM NaCl, pH 7.4, to which is added ovalbumin (OVA) at a concentration of 1 mg/ml. Solutions of arginase I and II were prepared in 100 mM sodium phosphate buffer, pH 7.4 containing 1 mg/ml of OVA to give an arginase stock solution at a final concentration of 100 ng/ml.
(§2) To each well of a 96-well microtiter plate was added 40 μl of enzyme, 10 μl of an inventive compound and 10 μl of enzyme substrate (L-arginine+manganese sulfate). For wells that were used as positive controls, only the enzyme and its substrate were added, while wells used as negative controls contained only manganese sulfate.
(§3) After incubating the microtiter plate at 37° C. for 60 minutes, 150 μl of a urea reagent obtained by combining equal proportions (1:1) of reagents A and B is added to each well of the microtiter plate to stop the reaction. The urea reagent is made just before use by combining Reagent A (10 mM o-phthaldialdehyde, and 0.4% polyoxyethylene (23) lauryl ether (w/v) in 1.8 M sulfuric acid) with Reagent B (1.3 mM primaquine diphosphate, 0.4% polyoxyethylene (23) lauryl ether (w/v), 130 mM boric acid in 3.6 mM sulfuric acid). After quenching the reaction mixture, the microtiter plate is allowed to stand for an additional 10 minutes at room temperature to allow the color to develop. The inhibition of arginase was computed by measuring the optical density (OD) of the reaction mixture at 530 nm and normalizing the OD value to percent inhibition observed in the control. The normalized OD is then used to generate a dose-response curve by plotting the normalized OD values against log [concentration] and using regression analysis to compute the IC50 values.

For assay [1], the target named is human arginase II (ARG II) (Homo sapiens (Human), UniProt P78540). Briefly: Inhibition of arginase II, spectrophotometric urea assay at 530 nm. Format: biochemical. As to conditions: potency rank 1-5; pH 7.4, 37° C., 60 minutes. As for the experimental part:
as §1, §2, §3

Where only a bound is given, the exact number is not on record here.

human arginase I (ARG I), sequence (P05089 whole entry): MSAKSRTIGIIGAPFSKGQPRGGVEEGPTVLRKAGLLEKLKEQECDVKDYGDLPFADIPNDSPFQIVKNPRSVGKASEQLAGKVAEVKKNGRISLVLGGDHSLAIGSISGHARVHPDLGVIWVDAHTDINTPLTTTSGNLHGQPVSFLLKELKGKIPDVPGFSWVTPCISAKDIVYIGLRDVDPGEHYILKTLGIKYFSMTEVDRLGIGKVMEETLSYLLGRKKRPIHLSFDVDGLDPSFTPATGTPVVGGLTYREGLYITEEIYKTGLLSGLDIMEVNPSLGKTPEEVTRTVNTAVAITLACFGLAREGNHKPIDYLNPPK
human arginase II (ARG II), sequence (P78540 23-354): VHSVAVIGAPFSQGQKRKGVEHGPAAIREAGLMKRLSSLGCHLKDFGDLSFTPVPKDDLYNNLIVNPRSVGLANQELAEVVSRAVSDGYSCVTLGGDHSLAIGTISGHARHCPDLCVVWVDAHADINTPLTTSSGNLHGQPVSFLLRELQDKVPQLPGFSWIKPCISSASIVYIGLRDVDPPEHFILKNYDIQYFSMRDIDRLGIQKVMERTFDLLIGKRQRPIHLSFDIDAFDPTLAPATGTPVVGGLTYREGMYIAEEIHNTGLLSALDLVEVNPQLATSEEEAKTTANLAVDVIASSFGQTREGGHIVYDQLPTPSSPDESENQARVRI

On to `N[C@@]1(C(=O)O)CN(C(=O)C2Cc3ccccc3CN2)C[C@@H]1CCCB(O)O` (mixture of isomers) [Example 53, (3R,4S)-3-amino-4-(3-boronopropyl)-1-(1,2,3,4-tetrahydroisoquinoline-3-carbonyl)pyrrolidine-3-carboxylic acid], for which the results for the IC50 (against human arginase I (ARG I); in assay [1]) were 0.1 to 250 nM and 251 to 1000 nM, respectively.
In the same order, the values of `NC(Cc1ccc(C(F)(F)F)cc1)C(=O)N1C[C@H](CCCB(O)O)[C@](N)(C(=O)O)C1` (mixture of isomers) [Example 54, (3R,4S)-3-amino-1-(2-amino-3-(4-(trifluoromethyl)phenyl)propanoyl)-4-(3-boronopropyl)pyrrolidine-3-carboxylic acid] are 251 to 1000 nM and 1000 to 2000 nM.
For `NC(Cc1ccccc1)CN1C[C@H](CCCB(O)O)[C@](N)(C(=O)O)C1` (mixture of isomers) [Example 57, (3R,4S)-3-amino-1-(2-amino-3-phenylpropyl)-4-(3-boronopropyl)pyrrolidine-3-carboxylic acid] the same measures were 0.1 to 250 nM and 0.1 to 250 nM.
As to `N[C@@]1(C(=O)O)CCC[C@@H]1CCCB(O)O` (racemic) [Example 1, (1S,2S)-1-amino-2-(3-boronopropyl)cyclopentanecarboxylic acid], the IC50 (at human arginase I (ARG I); in assay [1]) was 251 to 1000 nM throughout.
For `N[C@@]1(C(=O)O)CN(C(=O)c2ccc(F)cc2)C[C@@H]1CCCB(O)O` (racemic) [Example 46, (3R,4S)-3-amino-4-(3-boronopropyl)-1-(4-fluorobenzoyl)pyrrolidine-3-carboxylic acid], the IC50 (against human arginase I (ARG I); in assay [1]) was 251 to 1000 nM each time.
On to `N[C@@]1(C(=O)O)CN(C(=O)Nc2ccc(F)cc2)C[C@@H]1CCCB(O)O` (racemic) [Example 48, (3R,4S)-3-amino-4-(3-boronopropyl)-1-(4-fluorophenylcarbamoyl)pyrrolidine-3-carboxylic acid], for which the concentration for half-maximal inhibition (IC50) (on human arginase I (ARG I); in assay [1]) was 251 to 1000 nM in each case.
Consider `N[C@@]1(C(=O)O)C[C@@H](NCc2ccccc2)C[C@@H]1CCCB(O)O` (racemic) [Example 62, (1S,2S,4S)-1-amino-4-(benzylamino)-2-(3-boronopropyl)cyclopentanecarboxylic acid], for which the IC50 (on human arginase I (ARG I); in assay [1]) was 0.1 to 250 nM each time.
As to `CN(C)[C@H]1C[C@H](CCCB(O)O)[C@](N)(C(=O)O)C1` (racemic) [Example 63, (1S,2S,4S)-1-amino-2-(3-boronopropyl)-4-(dimethylamino)cyclopentanecarboxylic acid], the IC50 (on human arginase I (ARG I); in assay [1]) was 0.1 to 250 nM throughout.
For the compound `NC[C@@H]1C[C@H](CCCB(O)O)[C@](N)(C(=O)O)C1` (racemic) [Example 64, (1S,2S,4R)-1-amino-4-(aminomethyl)-2-(3-boronopropyl)cyclopentanecarboxylic acid], the IC50 (against human arginase I (ARG I); in assay [1]) was 0.1 to 250 nM in each case.
Regarding `NC[C@H]1C[C@H](CCCB(O)O)[C@](N)(C(=O)O)C1` (racemic) [Example 65, (1S,2S,4S)-1-amino-4-(aminomethyl)-2-(3-boronopropyl)cyclopentanecarboxylic acid], the IC50 on human arginase I (ARG I) lay within 251 to 1000 nM; in assay [1] it was 1000 to 2000 nM.
In the same order, the values of `NCC[C@H]1C[C@H](CCCB(O)O)[C@](N)(C(=O)O)C1` (racemic) [Example 66, (1S,2S,4R)-1-amino-4-(2-aminoethyl)-2-(3-boronopropyl)cyclopentanecarboxylic acid] are 0.1 to 250 nM and 0.1 to 250 nM.
On to `N[C@@]1(C(=O)O)CCC[C@H]1CCCB(O)O` [Example 2, (1S,2R)-1-amino-2-(3-boronopropyl)cyclopentanecarboxylic acid], for which the IC50 (against human arginase I (ARG I); in assay [1]) was greater than 5000 nM each time.
Consider `N[C@@]1(C(=O)O)CCO[C@@H]1CCCB(O)O` [Example 3, (2R,3S)-3-amino-2-(3-boronopropyl)tetrahydrofuran-3-carboxylic acid], for which the IC50 against human arginase I (ARG I) lay within 1000 to 2000 nM; in assay [1], 2000 to 5000 nM.
For the compound `N[C@@]1(C(=O)O)CCO[C@H]1CCCB(O)O` [Example 4, (2S,3S)-3-amino-2-(3-boronopropyl)tetrahydrofuran-3-carboxylic acid], the IC50 (on human arginase I (ARG I); in assay [1]) was 0.1 to 250 nM in each case.
On to `NC1(C(=O)O)CCSC1CCCB(O)O` (stereo not shown) [Example 5, 3-amino-2-(3-boronopropyl)tetrahydrothiophene-3-carboxylic acid], for which the results for the IC50 (against human arginase I (ARG I); in assay [1]) were 1000 to 2000 nM and 2000 to 5000 nM, respectively.
For `N[C@@]1(C(=O)O)CCNC[C@H]1CCCB(O)O` [Example 6, (3R,4S)-4-amino-3-(3-boronopropyl)piperidine-4-carboxylic acid] the same measures were 251 to 1000 nM and 2000 to 5000 nM.
As to `N[C@@]1(C(=O)O)CCNC[C@@H]1CCCB(O)O` [Example 7, (3S,4S)-4-amino-3-(3-boronopropyl)piperidine-4-carboxylic acid], the IC50 (against human arginase I (ARG I); in assay [1]) was 251 to 1000 nM each time.
On to `N[C@@]1(C(=O)O)CNC[C@@H]1CCCB(O)O` [Example 8, (3R,4S)-3-amino-4-(3-boronopropyl)pyrrolidine-3-carboxylic acid], for which the IC50 (against human arginase I (ARG I); in assay [1]) was 251 to 1000 nM throughout.
As for `N[C@@]1(C(=O)O)CNC[C@H]1CCCB(O)O` [Example 9, (3R,4R)-3-amino-4-(3-boronopropyl)pyrrolidine-3-carboxylic acid], the IC50 (against human arginase I (ARG I); in assay [1]) was 1000 to 2000 nM throughout.
Turning to `N[C@@]1(C(=O)O)CCN[C@@H]1CCCB(O)O` [Example 10, (2R,3S)-3-amino-2-(3-boronopropyl)pyrrolidine-3-carboxylic acid], the concentration for half-maximal inhibition (IC50) (at human arginase I (ARG I); in assay [1]) was greater than 5000 nM throughout.
Regarding `CC(C)CN1C[C@H](CCCB(O)O)[C@](N)(C(=O)O)C1` [Example 11, (3R,4S)-3-amino-4-(3-boronopropyl)-1-isobutylpyrrolidine-3-carboxylic acid], the IC50 lay in the range of 251 to 1000 nM on human arginase I (ARG I) and 1000 to 2000 nM in assay [1].
For `N[C@@]1(C(=O)O)CN(Cc2ccccc2)C[C@@H]1CCCB(O)O` [Example 12, (3R,4S)-3-amino-1-benzyl-4-(3-boronopropyl)pyrrolidine-3-carboxylic acid] the same measures were 251 to 1000 nM and 1000 to 2000 nM.
In the same order, the values of `N[C@@]1(C(=O)O)CN(Cc2cccnc2)C[C@@H]1CCCB(O)O` [Example 13, (3R,4S)-3-amino-4-(3-boronopropyl)-1-(pyridin-3-ylmethyl)pyrrolidine-3-carboxylic acid] are 251 to 1000 nM and 1000 to 2000 nM.
As for `NC1CCCC1N1C[C@H](CCCB(O)O)[C@](N)(C(=O)O)C1` (stereo partly drawn) [Example 14, (3R,4S)-3-amino-1-(2-aminocyclopentyl)-4-(3-boronopropyl)pyrrolidine-3-carboxylic acid], the IC50 (against human arginase I (ARG I); in assay [1]) was 0.1 to 250 nM in each case.
Turning to `N[C@@]1(C(=O)O)CN(CC2CCNCC2)C[C@@H]1CCCB(O)O` [Example 15], the IC50 on human arginase I (ARG I) fell in the range of 251 to 1000 nM; in assay [1], 1000 to 2000 nM.
In the same order, the values of `N[C@@]1(C(=O)O)CN(CCCc2ccc(C(=O)O)cc2)C[C@@H]1CCCB(O)O` [Example 16, (3R,4S)-3-amino-4-(3-boronopropyl)-1-(3-(4-carboxyphenyl)propyl)pyrrolidine-3-carboxylic acid] are 0.1 to 250 nM and 0.1 to 250 nM.
In the case of `CN(C)CC(C)(C)CN1C[C@H](CCCB(O)O)[C@](N)(C(=O)O)C1` [Example 17, (3R,4S)-3-amino-4-(3-boronopropyl)-1-(3-(dimethylamino)-2,2-dimethylpropyl)pyrrolidine-3-carboxylic acid], the IC50 at human arginase I (ARG I) lay within 2000 to 5000 nM.
For the compound `N[C@@]1(C(=O)O)CN(CC2CCCNC2)C[C@@H]1CCCB(O)O` (stereo partly drawn) [Example 18, (3R,4S)-3-amino-4-(3-boronopropyl)-1-(piperidin-3-ylmethyl)pyrrolidine-3-carboxylic acid], the IC50 on human arginase I (ARG I) fell in the range of 0.1 to 250 nM; in assay [1] it was 251 to 1000 nM.
For the compound `N[C@@]1(C(=O)O)CN(Cc2ccnc3ccccc23)C[C@@H]1CCCB(O)O` [Example 19, (3R,4S)-3-amino-4-(3-boronopropyl)-1-(quinolin-4-ylmethyl)pyrrolidine-3-carboxylic acid], the IC50 (on human arginase I (ARG I); in assay [1]) was 251 to 1000 nM throughout.
Turning to `N[C@@]1(C(=O)O)CN(Cc2c[nH]cn2)C[C@@H]1CCCB(O)O` [Example 20, (3R,4S)-1-((1H-imidazol-4-yl)methyl)-3-amino-4-(3-boronopropyl)pyrrolidine-3-carboxylic acid], the results for the IC50 (at human arginase I (ARG I); in assay [1]) were 0.1 to 250 nM and 251 to 1000 nM, respectively.
For `N[C@@]1(C(=O)O)CN(CC2CCCCN2)C[C@@H]1CCCB(O)O` (stereo partly drawn) [Example 21, (3R,4S)-3-amino-4-(3-boronopropyl)-1-(piperidin-2-ylmethyl)pyrrolidine-3-carboxylic acid] the same measures were 0.1 to 250 nM and 0.1 to 250 nM.

For orientation: IC50 means the concentration that gives 50% inhibition. A higher IC50 goes with a need for much substance.

(Values after patent US10098902B2, “Arginase inhibitors as therapeutics” (Mars, Incorporated, priority 2010, dated 2018).)
